Laboratory results from patent US20250223268A1, “4-Methylsulfonylbenzamide Compound, Preparation Method, Herbicidal Composition And Use” (Jiangsu Flag Chemical Industry Co., Ltd., priority 2022, published 2025).

How the values were obtained:
Experiment in all cases: Greenhouse herbicidal activity assay, post-emergence
Type in all cases: in vivo
Settings in all cases: Post-emergence test, rate 150 g a.i./hm^2; grade by fresh weight inhibition rate
Echinochloa crusgalli = system: Echinochloa crusgalli
How it was run: (§1)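 Weeds and crops grown in pots of nutrient soil in a growth chamber to the 3-6 leaf stage, then foliar-sprayed and air-dried. Fresh weight inhibition scored 14-21 days after treatment and graded A (≥80%) through E (<20%).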

Cyperus iria = system: Cyperus iria
How it was run: as §1

Eclipta prostrata = system: Eclipta prostrata
How it was run: as §1

Digitaria sanguinalis = system: Digitaria sanguinalis
How it was run: as §1

Leptochloa chinensis = system: Leptochloa chinensis
How it was run: as §1

Row | Compound | Control efficacy grade, Echinochloa crusgalli (Echinochloa crusgalli) | Control efficacy grade, Cyperus iria (Cyperus iria) | Control efficacy grade, Eclipta prostrata (Eclipta prostrata) | Control efficacy grade, Digitaria sanguinalis (Digitaria sanguinalis) | Control efficacy grade, Leptochloa chinensis (Leptochloa chinensis)
1 | CCC[S+]([O-])c1c(S(C)(=O)=O)ccc(C(=O)Nc2nnn[nH]2)c1Cl (racemic) [Compound 1-78] | A (Fresh weight inhibition rate≥80% to 100%) | A (Fresh weight inhibition rate≥80% to 100%) | A (Fresh weight inhibition rate≥80% to 100%) | A (Fresh weight inhibition rate≥80% to 100%) | A (Fresh weight inhibition rate≥80% to 100%)
2 | CCCCSc1c(S(C)(=O)=O)ccc(C(=O)Nc2nnco2)c1Cl [Compound 3-277] | A (Fresh weight inhibition rate≥80% to 100%) | A (Fresh weight inhibition rate≥80% to 100%) | A (Fresh weight inhibition rate≥80% to 100%) | C (Fresh weight inhibition rate≥40% to <60%) | A (Fresh weight inhibition rate≥80% to 100%)
3 | CC(C)[S+]([O-])c1c(S(C)(=O)=O)ccc(C(=O)Nc2nnnn2C)c1Cl (racemic) [Compound 1-7] | A (Fresh weight inhibition rate≥80% to 100%) | A (Fresh weight inhibition rate≥80% to 100%) | A (Fresh weight inhibition rate≥80% to 100%) | A (Fresh weight inhibition rate≥80% to 100%) | A (Fresh weight inhibition rate≥80% to 100%)
4 | Cn1nnnc1NC(=O)c1ccc(S(C)(=O)=O)c(SCC2CC2)c1Cl [Compound 1-27] | A (Fresh weight inhibition rate≥80% to 100%) | A (Fresh weight inhibition rate≥80% to 100%) | A (Fresh weight inhibition rate≥80% to 100%) | A (Fresh weight inhibition rate≥80% to 100%) | A (Fresh weight inhibition rate≥80% to 100%)
5 | CCC[S+]([O-])c1c(S(C)(=O)=O)ccc(C(=O)Nc2nnc(C3CC3)o2)c1Cl (racemic) [Compound 3-616] | A (Fresh weight inhibition rate≥80% to 100%) | A (Fresh weight inhibition rate≥80% to 100%) | A (Fresh weight inhibition rate≥80% to 100%) | A (Fresh weight inhibition rate≥80% to 100%) | A (Fresh weight inhibition rate≥80% to 100%)
6 | Cn1nnnc1NC(=O)c1ccc(S(C)(=O)=O)c(SCC(F)(F)F)c1Cl [Compound 1-52] | A (Fresh weight inhibition rate≥80% to 100%) | A (Fresh weight inhibition rate≥80% to 100%) | A (Fresh weight inhibition rate≥80% to 100%) | A (Fresh weight inhibition rate≥80% to 100%) | A (Fresh weight inhibition rate≥80% to 100%)
7 | CCCCSc1c(S(C)(=O)=O)ccc(C(=O)Nc2nnnn2C)c1Cl [Compound 1-11] | A (Fresh weight inhibition rate≥80% to 100%) | A (Fresh weight inhibition rate≥80% to 100%) | A (Fresh weight inhibition rate≥80% to 100%) | A (Fresh weight inhibition rate≥80% to 100%) | A (Fresh weight inhibition rate≥80% to 100%)
8 | C=CC[S+]([O-])c1c(S(C)(=O)=O)ccc(C(=O)Nc2nnc(C)o2)c1Cl (racemic) [Compound 3-113] | A (Fresh weight inhibition rate≥80% to 100%) | A (Fresh weight inhibition rate≥80% to 100%) | A (Fresh weight inhibition rate≥80% to 100%) | A (Fresh weight inhibition rate≥80% to 100%) | A (Fresh weight inhibition rate≥80% to 100%)
9 | Cc1nnc(NC(=O)c2ccc(S(C)(=O)=O)c([S+]([O-])CC(F)F)c2Cl)o1 (racemic) [Compound 3-103] | A (Fresh weight inhibition rate≥80% to 100%) | A (Fresh weight inhibition rate≥80% to 100%) | A (Fresh weight inhibition rate≥80% to 100%) | A (Fresh weight inhibition rate≥80% to 100%) | A (Fresh weight inhibition rate≥80% to 100%)
10 | CCC(C)S(=O)(=O)c1c(S(C)(=O)=O)ccc(C(=O)Nc2nnc(C)o2)c1Cl (single isomer, unassigned) [Compound 3-25] | A (Fresh weight inhibition rate≥80% to 100%) | A (Fresh weight inhibition rate≥80% to 100%) | A (Fresh weight inhibition rate≥80% to 100%) | A (Fresh weight inhibition rate≥80% to 100%) | A (Fresh weight inhibition rate≥80% to 100%)
11 | C=CCSc1c(S(C)(=O)=O)ccc(C(=O)Nc2ncnn2C)c1Cl [Compound 2-67] | B (Fresh weight inhibition rate≥260% to <80%) | A (Fresh weight inhibition rate≥80% to 100%) | A (Fresh weight inhibition rate≥80% to 100%) | B (Fresh weight inhibition rate≥260% to <80%) | B (Fresh weight inhibition rate≥260% to <80%)
12 | CS(=O)(=O)c1ccc(C(=O)Nc2nnc(C3CC3)o2)c(Cl)c1[S+]([O-])C1CCCCC1 (racemic) [Compound 3-667] | C (Fresh weight inhibition rate≥40% to <60%) | A (Fresh weight inhibition rate≥80% to 100%) | A (Fresh weight inhibition rate≥80% to 100%) | A (Fresh weight inhibition rate≥80% to 100%) | A (Fresh weight inhibition rate≥80% to 100%)
13 | CCc1nnc(NC(=O)c2ccc(S(C)(=O)=O)c([S+]([O-])C3CC3)c2Cl)o1 (racemic) [Compound 3-420] | A (Fresh weight inhibition rate≥80% to 100%) | A (Fresh weight inhibition rate≥80% to 100%) | A (Fresh weight inhibition rate≥80% to 100%) | A (Fresh weight inhibition rate≥80% to 100%) | A (Fresh weight inhibition rate≥80% to 100%)
14 | CS(=O)(=O)c1ccc(C(=O)Nc2nnco2)c(Cl)c1SCC(F)(F)F [Compound 3-323] | A (Fresh weight inhibition rate≥80% to 100%) | A (Fresh weight inhibition rate≥80% to 100%) | A (Fresh weight inhibition rate≥80% to 100%) | A (Fresh weight inhibition rate≥80% to 100%) | A (Fresh weight inhibition rate≥80% to 100%)
15 | CC(C)[S+]([O-])c1c(S(C)(=O)=O)ccc(C(=O)Nc2nnn[nH]2)c1Cl (racemic) [Compound 1-83] | A (Fresh weight inhibition rate≥80% to 100%) | A (Fresh weight inhibition rate≥80% to 100%) | A (Fresh weight inhibition rate≥80% to 100%) | A (Fresh weight inhibition rate≥80% to 100%) | A (Fresh weight inhibition rate≥80% to 100%)
16 | Cc1nnc(NC(=O)c2ccc(S(C)(=O)=O)c([S+]([O-])C3CCC3)c2Cl)o1 (racemic) [Compound 3-83] | A (Fresh weight inhibition rate≥80% to 100%) | A (Fresh weight inhibition rate≥80% to 100%) | A (Fresh weight inhibition rate≥80% to 100%) | A (Fresh weight inhibition rate≥80% to 100%) | A (Fresh weight inhibition rate≥80% to 100%)
17 | CCc1nnc(NC(=O)c2ccc(S(C)(=O)=O)c(SC3CCC3)c2Cl)o1 [Compound 3-424] | A (Fresh weight inhibition rate≥80% to 100%) | A (Fresh weight inhibition rate≥80% to 100%) | A (Fresh weight inhibition rate≥80% to 100%) | A (Fresh weight inhibition rate≥80% to 100%) | A (Fresh weight inhibition rate≥80% to 100%)
18 | CCC[S+]([O-])c1c(S(C)(=O)=O)ccc(C(=O)Nc2nnnn2C)c1Cl (single isomer, unassigned) [Compound 1-3] | A (Fresh weight inhibition rate≥80% to 100%) | A (Fresh weight inhibition rate≥80% to 100%) | A (Fresh weight inhibition rate≥80% to 100%) | A (Fresh weight inhibition rate≥80% to 100%) | A (Fresh weight inhibition rate≥80% to 100%)
19 | Cc1nnc(NC(=O)c2ccc(S(C)(=O)=O)c([S+]([O-])CCC(C)C)c2Cl)o1 (racemic) [Compound 3-53] | B (Fresh weight inhibition rate≥260% to <80%) | A (Fresh weight inhibition rate≥80% to 100%) | A (Fresh weight inhibition rate≥80% to 100%) | A (Fresh weight inhibition rate≥80% to 100%) | A (Fresh weight inhibition rate≥80% to 100%)
